# Measured values: patent US7625945B2, “Andrographolide and analogues as inhibitors of TNFα and IL-1β expression” (Hutchison MediPharma Enterprises Ltd., priority 2004, dated 2009)
# Test system: DNBS-induced colitis
# Assay: In vivo assay: DNBS-induced distal colitis in rats
# Parameters: species or system Male Wistar rats
# Conditions: DNBS-treated rats, 10 mg/kg i.p.
# Procedure: Male Wistar rats (170-190 g, provided by Chinese academy of science animal center, Shanghai) were housed (7˜8 rats per cage) in a controlled environment and fed with standard rodent chow and water. Distal colitis was induced to the rats according to the procedure described in Hogaboam C. M., European Journal of Pharmacology, 1996, 309: 261-269. Briefly, the rats were anaesthetized with 1% pentobarbital sodium. 2,4-Dinitrobenzene sulfonic acid (DNBS) in 0.25 ml of 30% ethanol (v/v) was introduced into the colon (8 cm proximal to the anus) via a PE 50 cannula. In the control group (blank-control), 30% ethanol (v/v), in stead of DNBS in ethanol, was introduced. Andrographolide (10 mg/kg, i.p.) was administered to a group of DNBS-treated rats 24 hours and 2 hours prior to the colitis induction and once daily thereafter for 5 days. The rats were weighed daily. All rats were sacrificed 6 days after the colitis induction, and colon, spleen, and thymus were removed and weighed. The colon weight/body weight ratio, spleen weight/body weight ratio, and thymus weight/body weight ratio were calculated. Samples of colon tissues located precisely 2 cm above the anal canal were obtained, fixed in 10% neutral-buffered formalin, embedded in paraffin, sectioned, and stained with hematoxylin/eosin. The samples were examined under microscope to determine severity of the lesions.
smiles,measurement,setting,value
C=C1CC[C@@H]2[C@](C)(CO)[C@H](O)CC[C@@]2(C)[C@@H]1C/C=C1/C(=O)OC[C@H]1O [andrographolide],overall effect on DNBS-induced colitis,,effectively alleviated or even cured
same,microscopic examination of colon: severity of inflammation,"colon sections hematoxylin/eosin, 6 days after induction",much less severe inflammation
same,colon weight/body weight ratio,treatment for 6 days,decreased
same,"wasting syndrome (weight loss, diarrhea)",treatment for 6 days,alleviated wasting syndrome
